Experimental findings from patent US8324264B1, “Inhibitors of bacterial biofilms and related methods” (Sequoia Sciences, Inc., priority 2011, dated 2012) are described below.

Converted amounts (≈) assume the structure as drawn.

Assay [1] concerns E. coli biofilms. The assay can be described thus: Biofilm growth assay (spreading biofilm on semi-solid agar), E. coli. Type of assay: cell-based. Particulars: biofilm growth assay, overnight 37° C., vs negative controls, Tables 1-5; for IC85: Escherichia coli, read-out: E. coli: concentration that reduces the area of the spreading biofilm by greater than or equal to 85%. An excerpt:
(§1) “Biofilm Growth Assay” refers to an assay performed on semi-solid agar surface where the bacteria collectively move out from an inoculation point. To those skilled in the art, the act of bacteria collectively moving out from an inoculation point on a semi-solid surface may be referred to as swarming or a spreading biofilm. (Anderson, et al Microbiology, 2003, 149, 37-46; Daniels, et al. FEMS Microbiology Reviews, 2004, 28, 261-289). The procedure to perform this assay is described in detail in the Examples. This type of surface motility by bacteria has been reported in the literature by those skilled in the art. […] These references are incorporated herein by reference in their entirety.
(§2) The biofilm growth assay was carried out to measure swarming or biofilm spreading on semi-solid agar media in round plates (for example, 100×15 mm), also referred to as Petri dishes. For E. coli, the plates contained LB medium with 0.6% agar and 0.5% glucose. P. aeruginosa plates were made with M8 agar supplemented with 0.2% glucose, 100 μM CaCl2, 1 mM MgSO4, and 0.5% Casamino acids. The agar plates of this assay consisted of 0.4% to 0.7% agar (Bacto or Noble agar), although other media may also be used as described in the literature and known to those skilled in the art. Test compounds at the desired concentration were added to the cooled, autoclaved media. Portions of the media were then poured into the plates (20 mL/plate), and the plates allowed to dry at room temperature for approximately 3 to 4 hours. Alternatively, however, plates may be dried in a laminar flow hood for approximately fifteen to twenty minutes. Overnight cultures were grown in a 37° C. shaker in LB (E. coli) or TSB (P. aeruginosa). Plates were inoculated by placing 5 μL of the appropriate overnight culture in the centers of the plates. The plates then were incubated overnight at 37° C. The area of the zone of spreading bacteria was then measured and replicates are averaged. Percent inhibition was calculated as 100×(area without compound−area with compound)/(area without compound). An active compound was considered that which reduces the area of the spreading biofilm compared to negative controls by greater than or equal to 85%. The values shown in Table 1 are the concentrations of compounds (μg/ml) tested in the biofilm growth assay that reduce the area of the spreading biofilm compared to negative controls by greater than or equal to 85% unless noted differently in Table 1. A > (“greater than” symbol) as used in Table 1 is well understood to those skilled in the art as an indication that the listed concentration was not effective at this concentration.
(§3) All of the compounds shown in Tables 2, 3, 4, and 5, below, were prepared semi-synthetically from oleanolic acid, except for Compounds 2 and 3. Compound 2 was prepared from ursolic acid. Compound 3 was prepared from hederagenin, but could also be prepared from an oleanolic acid analog with a hydroxyl at C23 or C24. These compounds were tested in the spreading biofilm assay according to the methods detailed in Example I, above. The values shown in Tables 2, 3, 4, and 5 are the concentrations of compounds tested in the biofilm growth assay that reduce the area of the spreading biofilm compared to negative controls by greater than or equal to 85%.

Assay [2] relates to P. aeruginosa biofilms. The experiment in a line: Biofilm growth assay (spreading biofilm on semi-solid agar), P. aeruginosa. It is filed as cell-based. Particulars: biofilm growth assay, overnight 37° C., vs negative controls, Tables 1-5; for IC85: Pseudomonas aeruginosa, read-out: P. aeruginosa: concentration that reduces the area of the spreading biofilm by greater than or equal to 85%.
Text: as §1, §2, §3

For `Cc1c([C@]23CCC(C)(C)CC2C2=CCC4[C@@]5(C)Cc6c(n[nH]c6N)C(C)(C)C5CC[C@@]4(C)[C@]2(C)CC3)n[nH]c1O` (stereo partly drawn) [Compound 82, 3-((4aS,6aS,6bR,13aR)-12-Amino-2,2,6a,6b,9,9,13a-heptamethyl-2,3,4,4a,5,6,6a,6b,7,8,8a,9,11,13,13a,13b,14,15b-octadecahydro-1H-chryseno[1,2-f]indazol-4-a-yl)-4-methyl-1H-pyrazol-5-ol], the “E. coli: concentration that reduces the area of the spreading biofilm by greater than or equal to 85%” value in assay [1] was 1 µg/mL. In assay [2], the “P. aeruginosa: concentration that reduces the area of the spreading biofilm by greater than or equal to 85%” value amounted to 0.5 µg/mL.

Take `CC1(C)CC[C@]2(c3n[nH]c(O)c3F)CC[C@]3(C)C(=CCC4[C@@]5(C)Cc6c(n[nH]c6N)C(C)(C)C5CC[C@]43C)C2C1` (stereo partly drawn) [Compound 83, 3-((4aS,6aS,6bR,13aR)-12-Amino-2,2,6a,6b,9,9,13a-heptamethyl-2,3,4,4a,5,6,6a,6b,7,8,8a,9,11,13,13a,13b,14,15b-octadecahydro-1H-chryseno[1,2-f]indazol-4-a-yl)-4-fluoro-1H-pyrazol-5-ol]: the “E. coli: concentration that reduces the area of the spreading biofilm by greater than or equal to 85%” value in assay [1] stood at 0.5 µg/mL. Moreover, the “P. aeruginosa: concentration that reduces the area of the spreading biofilm by greater than or equal to 85%” value in assay [2] is 0.25 µg/mL.

For `CC1(C)CC[C@]2(c3n[nH]c(O)c3CCN)CC[C@]3(C)C(=CCC4[C@@]5(C)Cc6c(n[nH]c6N)C(C)(C)[C@@H]5CC[C@]43C)[C@@H]2C1` (stereo partly drawn) [Compound 84, 3-((4aS,6aS,6bR,13aR)-12-Amino-2,2,6a,6b,9,9,13a-heptamethyl-2,3,4,4a,5,6,6a,6b,7,8,8a,9,11,13,13a,13b,14,15b-octadecahydro-1H-chryseno[1,2-f]indazol-4-a-yl)-4-(2-aminoethyl)-1H-pyrazol-5-ol], the IC85 in assay [1] is 0.5 µg/mL (≈ 0.87 µM); in assay [2], 0.125 µg/mL (≈ 0.217 µM).

In the case of `CN(C)CCc1c([C@]23CCC(C)(C)CC2C2=CCC4[C@@]5(C)Cc6c(n[nH]c6N)C(C)(C)C5CC[C@@]4(C)[C@]2(C)CC3)n[nH]c1O` (stereo partly drawn) [Compound 85, 3-((4aS,6aS,6bR,13aR)-12-Amino-2,2,6a,6b,9,9,13a-heptamethyl-2,3,4,4a,5,6,6a,6b,7,8,8a,9,11,13,13a,13b,14,15b-octadecahydro-1H-chryseno[1,2-f]indazol-4-a-yl)-4-(2-(dimethylamino)ethyl)-1H-pyrazol-5-ol], in assay [1], the “E. coli: concentration that reduces the area of the spreading biofilm by greater than or equal to 85%” value was determined as 1 µg/mL. The “P. aeruginosa: concentration that reduces the area of the spreading biofilm by greater than or equal to 85%” value in assay [2] was 0.5 µg/mL.

Take `CNCCc1c([C@]23CCC(C)(C)CC2C2=CCC4[C@@]5(C)Cc6c(n[nH]c6N)C(C)(C)C5CC[C@@]4(C)[C@]2(C)CC3)n[nH]c1O` (stereo partly drawn) [Compound 86, 3-((4aS,6aS,6bR,13aR)-12-Amino-2,2,6a,6b,9,9,13a-heptamethyl-2,3,4,4a,5,6,6a,6b,7,8,8a,9,11,13,13a,13b,14,15b-octadecahydro-1H-chryseno[1,2-f]indazol-4-a-yl)-4-(2-(methylamino)ethyl)-1H-pyrazol-5-ol]: the “E. coli: concentration that reduces the area of the spreading biofilm by greater than or equal to 85%” value in assay [1] was 2 µg/mL. For the same compound, in assay [2], the “P. aeruginosa: concentration that reduces the area of the spreading biofilm by greater than or equal to 85%” value is 0.5 µg/mL.

Regarding `CC1(C)CC[C@]2(c3n[nH]c(O)c3N3CCOCC3)CC[C@]3(C)C(=CCC4[C@@]5(C)Cc6c(n[nH]c6N)C(C)(C)[C@@H]5CC[C@]43C)[C@@H]2C1` (stereo partly drawn) [Compound 88, 3-((4aS,6aS,6bR,13aR)-12-Amino-2,2,6a,6b,9,9,13a-heptamethyl-2,3,4,4a,5,6,6a,6b,7,8,8a,9,11,13,13a,13b,14,15b-octadecahydro-1H-chryseno[1,2-f]indazol-4-a-yl)-4-morpholino-1H-pyrazol-5-ol], the IC85 is 0.5 µg/mL (≈ 0.811 µM) in assay [1] and 0.25 µg/mL (≈ 0.405 µM) in assay [2].
